How the values were obtained:
[1] = target: T1, CXCR4 (Homo sapiens, UniProt P61073); experiment: CXCR4-binding inhibition activity (125I-SDF-1α binding to MT-4 cells); conditions: 0.1 μM test material, ligand 125I-SDF-1α, 2 hours under ice cold condition
T1 construct: endogenous in cells; host or cells: MT-4 cells
Experimental: CXCR4-Binding Inhibition Activity
MT-4 cells (5×10^6/0.2 ml/well) were cultured on a 24-well microtiter plate. After the cells were incubated for 24 hours at 37° C. in a carbon dioxide gas incubator, a culture mediumwas replaced with a buffer solution (RPMI-1640 containing 0.1% BSA). Together with a ligand ^125I-SDF-1α (specific activity: 2,2000 Ci/mmol; DAIICHI PURE CHEMICALS CO. ,LTD. (Tokyo)), various concentrations of test materials were subjected to a binding reaction for 2 hours under ice cold condition.

[2] = test system: ICR mice; experiment: Acute toxicity in ICR mice; format: in vivo; conditions: 50 mg/kg intraperitoneally twice a day for 4 days; dead mice after 5 days; male ICR mice, three animals per group
Experimental: The CXCR4-antagonist or the salt thereof of the present invention is intraperitoneally injected in to an ICR mouse ([…]) twice a day for 4 consecutive days, and no lethal case was found after 5 days. Therefore, the conclusion can be drawn that there is no acute toxicity.
7-week old ICR mice (male) (obtained from Charls River Japan Inc) were divided into three-animals for each groups. After domestication-breeding for 1 week, the compound of the coresponding Synthesis Example was dissolved in a physiological salt solution or distilled water and the solution was then intraperitoneally dosed twice a day for 4 days (50 mg/kg in dosage).

[3] = test system: type-II collagen-induced arthritis mouse; experiment: Drug efficacy test on type-II collagen-induced arthritis (CIA) mouse; format: in vivo
Experimental: Drug Efficacy Test of the Compound No. 86 on Type-II Collagen-Induced Arthritis Mouse
Using the type-II collagen-induced mouse arthritis (CIA) model, which was a model of articular rheumatism (RA), the compound No. 86 was tested for drug efficacy.
24 of 6-week-oldmale DBA/l mice (obtained from Charles River Japan, Inc.) were used as test animal and were divided in groups of 12 animals, that is, a test group of and a control group, such that the average weights of the respective groups were almost equal to each other.
An initial-sensitizing antigen solution used was a liquid of adjusted emulsion prepared by dissolving chicken type-II collagen (obtained from Collagen Gijyutu Kensyuukai) in 0.01N acetic acid (4mg/mL) andthenmixingwith an equal amount of Freund's complete adjuvant (manufactured by Difco BRL), and an additional-sensitizing antigen solution used was a liquid of emulsion prepared by dissolving chicken type-II collagen in 0.01N acetic acid (8 mg/mL), and then mixing with an equal amount of Freund's complete adjuvant.
An initial sensitization was performed by endodermic injection of 50 μl of the initial-sensitizing antigen solution (containing 100 μg of chicken type-II collagen) into the tail of the mouse. The additional sensitization was performed after 21 days from the initial sensitization by endodermic injection of 50 μl of the additional-sensitizing antigen solution (containing 200 μg of chicken type-II collagen) into the tail of the mouse.
The compound No. 86, which was provided as a test material, was provided as one at a concentration of 5 mg/mL prepared by dissolving ditartrate thereof in a physiological saline solution. The test material was administered such that the test material was interperitoneally administered once a day for consecutive 17 days from 2 days before the additional sensitization (an amount of administered liquid was 10 mL/kg). In addition, for the control group, the test material was administered by dissolving ditartrate in a physiological saline solution so as to make the concentration of tartaric acid of 1.7 mg/mL because a dosage solvent is ditartrate for the test material compound No. 86.
Amacroscopic observation on extremities after the additional sensitization was performed once a day. A scoring of the macroscopic observation was according to the following criteria and judged on each of extremities with respect to edema of foot. The total of the scores of extremities was provided as an index of the onset of symptoms and pharmacometrics with respect to arthritis. In addition, the total of the numbers of fingers of each extremity on which edema was observed was also used as an index of pharmacometrics.
In addition, the scores in FIG. 6 were defined as follows: […]

T1 sequence (P61073 whole entry): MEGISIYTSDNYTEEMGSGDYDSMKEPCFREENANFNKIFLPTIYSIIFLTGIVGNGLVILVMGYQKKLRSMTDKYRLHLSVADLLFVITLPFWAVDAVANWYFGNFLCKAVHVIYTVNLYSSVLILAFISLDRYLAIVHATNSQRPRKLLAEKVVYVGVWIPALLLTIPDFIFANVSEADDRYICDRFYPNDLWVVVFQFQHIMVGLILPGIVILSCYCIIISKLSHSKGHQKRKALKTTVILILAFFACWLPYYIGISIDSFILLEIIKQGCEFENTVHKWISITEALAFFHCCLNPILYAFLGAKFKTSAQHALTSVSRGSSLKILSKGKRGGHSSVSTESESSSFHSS

Compound	inhibition rate (binding-inhibition % at 0.1 μM) [1] [%]	Number of dead mice [2]	lesion score of extremities (arthritis score) ([3]; 5 mg/mL, 10 mL/kg intraperitoneally once a day for 17 days from 2 days before additional sensitization, observed 12 days after additional sensitization, vs control group)	change in animal body weights ([3]; 5 mg/mL, 10 mL/kg intraperitoneally once a day for 17 days, CIA mice)	number of edematous fingers (chronological increase) ([3]; 5 mg/mL, 10 mL/kg intraperitoneally once a day for 17 days, observed 12 days after additional sensitization, vs control group)	increase in number of edematous fingers ([3]; after 12 days from the additional sensitization, vs control group)
C[C@H](NC(=O)[C@H](CCCN=C(N)N)NC(=O)c1ccc(CNCc2ccccn2)cc1)c1cccc2ccccc12 [Compound No. 86, N^α-(4-(N-2-picolylaminomethyl)benzoyl)-L-arginine(1′S)-1′-(1-naphthyl)ethylamide]	91.4	0/3	tended to inhibit a chronological increase	no influence was found	tended to inhibit a chronological increase	significantly inhibited
C[C@H](NC(=O)[C@H](CCCNC(=N)N)NC(=O)c1ccc(CNCc2nccn2C)c2ccccc12)c1cccc2ccccc12 [Compound No. 97, N^α-(4-((N-(1-methylimidazol-2-ylmethyl)amino)methyl)naphthalene-1-carbonyl)-L-arginine(1′S)-1′-(1-naphthyl)ethylamide]	100.0	0/3	–	–	–	–
C[C@H](NC(=O)[C@H](CCCNC(=N)N)NC(=O)c1ccc(CNCc2ccccn2)c2ccccc12)c1cccc2ccccc12 [Compound No. 99, N^α-(4-(N-2-picolylaminomethyl)naphthoyl)-L-arginine(1′S)-1′-(1-naphthyl)ethylamide]	76.4	0/3	–	–	–	–
C[C@H](NC(=O)[C@H](CCCNC1CCCc2cccnc21)NC(=O)c1ccc(CNCc2ncc[nH]2)cc1)c1cccc2ccccc12 (some centres unmarked) [Compound No. 106]	100.0	0/3	–	–	–	–
C[C@H](NC(=O)[C@H](CCCNC1CCCc2cccnc21)NC(=O)c1ccc(CNCc2nccn2C)cc1)c1cccc2ccccc12 (some centres unmarked) [Compound No. 107]	96.5	0/3	–	–	–	–
